tested on: demethylation of H3K4 (H3K4me3 mark) in U2OS cells; assay: Histone lysine demethylase immunofluorescence assay, non-transfected U2OS cells (H3K4me3 staining); format: cell-based; conditions: Homo sapiens, 20 hours
Method: Histone Lysine Demethylase Immunofluorescence Assays for IC50 Value Determination, Non-Transfected Cells
U2OS cells were harvested and seeded into multi well plates into media containing compound. The media used was DMEM containing 5% FBS and pen/strep. 20 hours after incubation of cells with compounds, the cells were washed once in PBS, harvested by fixation with formaldehyde 4% aqueous solution, and washed 2 times in PBS. Subsequently, the cells were permeabilized in PBS with 0.2% Triton X-100 for 10 min at room temperature. Blocking was performed in PBS with 0.2% Triton X-100 and 5% FBS for 45 min at room temperature. The cells were incubated with αH3K4me3 primary antibody (Cell Signaling, #9751S) diluted 1:1000 in blocking solution over night at 4° C. After incubation with primary antibody, the cells were washed 3 times with PBS, incubated with secondary antibody diluted 1:1000 (Alexa fluor 594 goat anti rabbit IgG, Invitrogen, A11012) and Hoechst, 20 μg/ml (Sigma, 33342) in blocking solution, and washed again 3 times with PBS. Finally, PBS was added and high throughput imaging and analysis were performed by an IN Cell Analyzer 1000 (GE Healthcare). The IC50 values seen in Table 4 were based on an average measure of the staining of the H3K4me3 mark in cells.

Row | Structure (SMILES) | IC50
1 | CCOC(=O)c1ccnc(CNCC(=O)N(CC)CCN(C)C)c1 [drawing 241, ethyl 2-{[({[2-(dimethylamino)ethyl](ethyl)carbamoyl}methyl)amino]methyl}pyridine-4-carboxylate] | < 1000 nM
2 | C=CC(CCNC(=O)C(F)(F)F)OC(=O)c1ccnc(CNCC(=O)N(CC)CCN(C)C)c1 (stereo not drawn) [drawing 242, 5-(trifluoroacetamido)pent-1-en-3-yl 2-{[({[2-(dimethylamino)ethyl](ethyl)carbamoyl}methyl)amino]methyl}pyridine-4-carboxylate] | < 1000 nM
3 | C=CC(CCN(C)C(=O)C(F)(F)F)OC(=O)c1ccnc(CNCC(=O)N(CC)CCN(C)C)c1 (stereo not drawn) [drawing 243, 5-(2,2,2-trifluoro-N-methylacetamido)pent-1-en-3-yl 2-{[({[2-(dimethylamino)ethyl](ethyl)carbamoyl}methyl)amino]methyl}pyridine-4-carboxylate] | < 1000 nM
4 | CCCCCCCCCCCCCCCC(=O)OCC(COC(=O)CCCCCCCCCCCCCCC)OC(=O)c1ccnc(CNCC(=O)N(CC)CCN(C)C)c1 [drawing 244, 2-(2-{[({[2-(dimethylamino)ethyl](ethyl)carbamoyl}methyl)amino]methyl}pyridine-4-carbonyloxy)-3-(hexadecanoyloxy)propyl hexadecanoate] | < 1000 nM
5 | CCCCCCCCCCCCCCCC(=O)OCC(COC(=O)c1ccnc(CNCC(=O)N(CC)CCN(C)C)c1)OC(=O)CCCCCCCCCCCCCCC (stereo not drawn) [drawing 245, 1-(2-{[({[2-(dimethylamino)ethyl](ethyl)carbamoyl}methyl)amino]methyl}pyridine-4-carbonyloxy)-3-(hexadecanoyloxy)propan-2-yl hexadecanoate] | < 1000 nM
6 | CCN(CCN(C)C)C(=O)CNCc1cc(C(=O)OC)ccn1 [drawing 246, methyl 2-{[({[2-(dimethylamino)ethyl](ethyl)carbamoyl}methyl)amino]methyl}pyridine-4-carboxylate] | < 1000 nM
7 | CCN(CCN(C)C)C(=O)CNCc1cc(C(=O)N(C)S(C)(=O)=O)ccn1 [drawing 247, 2-{[({[2-(dimethylamino)ethyl](ethyl)carbamoyl}methyl)amino]methyl}-N-methanesulfonyl-N-methylpyridine-4-carboxamide] | 1000 to 50000 nM
8 | CCN(CCN(C)C)C(=O)CNCc1cc(C(=O)N2CCOC2=O)ccn1 [drawing 248, N-[2-(dimethylamino)ethyl]-N-ethyl-2-({[4-(2-oxo-1,3-oxazolidine-3-carbonyl)pyridin-2-yl]methyl}amino)acetamide] | 1000 to 50000 nM

Second part, the compound after the results:

Row | IC50 | Structure (SMILES)
9 | < 1000 nM | CCN(CCN(C)C)C(=O)CNCc1cc(C(=O)OC(CCNC(=O)C(F)(F)F)CC(=O)OC(C)C)ccn1 (stereo not drawn) [drawing 250, propan-2-yl 3-(2-{[({[2-(dimethylamino)ethyl](ethyl)carbamoyl}methyl)amino]methyl}pyridine-4-carbonyloxy)-5-(trifluoroacetamido)pentanoate]
10 | < 1000 nM | CCN(CCN(C)C)C(=O)CNCc1cc(C(=O)OCC(F)(F)F)ccn1 [drawing 251, 2,2,2-trifluoroethyl 2-{[({[2-(dimethylamino)ethyl](ethyl)carbamoyl}methyl)amino]methyl}pyridine-4-carboxylate]
11 | 1000 to 50000 nM | CCN(CCN(C)C)C(=O)CNCc1cc(C(=O)Nc2ncco2)ccn1 [drawing 252, 2-{[({[2-(dimethylamino)ethyl](ethyl)carbamoyl}methyl)amino]methyl}-N-(1,3-oxazol-2-yl)pyridine-4-carboxamide]
12 | 1000 to 50000 nM | CCN(CCN(C)C)C(=O)CNCc1cc(C(=O)Oc2c(OC(C)C)cccc2OC(C)C)ccn1 [drawing 253, 2,6-bis(propan-2-yloxy)phenyl 2-{[({[2-(dimethylamino)ethyl](ethyl)carbamoyl}methyl)amino]methyl}pyridine-4-carboxylate]
13 | 1000 to 50000 nM | CCN(CCN(C)C)C(=O)CNCc1cc(C(=O)Nc2nccn2C)ccn1 [drawing 254, 2-{[({[2-(dimethylamino)ethyl](ethyl)carbamoyl}methyl)amino]methyl}-N-(1-methyl-1H-imidazol-2-yl)pyridine-4-carboxamide]
14 | < 1000 nM | CCN(CCN(C)C)C(=O)CNCc1cc(C(=O)OCCF)ccn1 [drawing 255, 2-fluoroethyl 2-{[({[2-(dimethylamino)ethyl](ethyl)carbamoyl}methyl)amino]methyl}pyridine-4-carboxylate]
15 | < 1000 nM | CCN(CCN(C)C)C(=O)CNCc1cc(C(=O)OCC(F)F)ccn1 [drawing 256, 2,2-difluoroethyl 2-{[({[2-(dimethylamino)ethyl](ethyl)carbamoyl}methyl)amino]methyl}pyridine-4-carboxylate]

target: T1, PLU1 (KDM5B) (Homo sapiens, UniProt Q9UGL1); assay: Immunofluorescence assay in U2OS cells transfected with pCMVHA PLU1 (H3K4me2 mark); format: cell-based; conditions: 20 hours
T1 construct: (1-752); host or cells: U2OS
T1 sequence (Q9UGL1 1-752): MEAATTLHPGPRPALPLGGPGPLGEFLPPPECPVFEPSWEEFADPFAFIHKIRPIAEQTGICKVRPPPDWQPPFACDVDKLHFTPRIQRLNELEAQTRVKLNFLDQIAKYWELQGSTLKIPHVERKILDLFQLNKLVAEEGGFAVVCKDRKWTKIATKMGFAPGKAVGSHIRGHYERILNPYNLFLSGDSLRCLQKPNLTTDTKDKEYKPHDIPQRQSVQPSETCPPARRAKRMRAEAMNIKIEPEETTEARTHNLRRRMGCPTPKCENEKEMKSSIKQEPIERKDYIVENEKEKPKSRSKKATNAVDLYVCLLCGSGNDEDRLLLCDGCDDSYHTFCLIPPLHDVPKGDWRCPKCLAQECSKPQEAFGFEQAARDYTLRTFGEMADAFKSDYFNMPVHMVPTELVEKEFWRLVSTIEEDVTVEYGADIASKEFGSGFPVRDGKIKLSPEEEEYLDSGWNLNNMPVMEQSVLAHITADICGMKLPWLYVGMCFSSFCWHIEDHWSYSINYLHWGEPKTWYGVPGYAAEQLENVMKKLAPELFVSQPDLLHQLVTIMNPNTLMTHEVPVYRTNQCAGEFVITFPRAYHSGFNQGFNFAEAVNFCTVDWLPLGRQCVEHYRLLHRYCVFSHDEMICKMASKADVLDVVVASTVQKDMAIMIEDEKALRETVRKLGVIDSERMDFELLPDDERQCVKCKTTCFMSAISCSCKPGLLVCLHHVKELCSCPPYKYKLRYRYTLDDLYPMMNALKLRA
Method: (§1) U2OS cells were seeded 24 hours before transfection. Transfection was performed with Fugene HD transfection reagent as recommended by the manufacturer. 6 hours after transfection, the cells were harvested and seeded into multi well plates into media containing compound. The media used was DMEM containing 5% FBS and pen/strep. 20 hours after incubation of cells with compounds, the cells were washed once in PBS, harvested by fixation with formaldehyde 4% aqueous solution, and washed 2 times in PBS. Subsequently, the cells were permeabilized in PBS with 0.2% Triton X-100 for 10 min at room temperature. Blocking was performed in PBS with 0.2% Triton X-100 and 5% FBS for 45 min at room temperature. The cells were incubated with primary antibodies diluted 1 μg/ml in blocking solution over night at 4° C. The primary antibodies used in the assays were HA.11 (Covance, MMS-101P) and the antibody detecting the mark specified in the Table 6 below. After incubation with primary antibodies, the cells were washed 3 times with PBS, incubated with secondary antibodies diluted 1:1000 (Alexa fluor 594 goat anti rabbit IgG, Invitrogen, A11012; Alexa flour 488 donkey anti mouse IgG, Invitrogen, A21202) and Hoechst, 20 μg/ml (Sigma, 33342) in blocking solution, and washed again 3 times with PBS. Finally, PBS was added and high throughput imaging and analysis were performed by an IN Cell Analyzer 1000 (GE Healthcare). The robot software analyzed individual cells and divided these into HA^+ (transfected cells) and HA^− (non-transfected cells). The IC50 values in Table 7 below were based on an average measure of the staining of the mark specified in the Table 6 below in the transfected cells.

Row | IC50 | Structure (SMILES)
16 | 1 to 50 µM | CN(C)CCCCNCc1cc(C(=O)O)ccn1 [2-({[4-(dimethylamino)butyl]amino}methyl)pyridine-4-carboxylic acid]
17 | 1 to 50 µM | O=C(O)c1ccnc(CNCC[C@@H]2CCCN2Cc2ccccc2)c1 [2-[({2-[(2S)-1-benzylpyrrolidin-2-yl]ethyl}amino)methyl] pyridine-4-carboxylic acid]

target: T2, GASC1 (KDM4C) (Homo sapiens, UniProt Q9H3R0); assay: Immunofluorescence assay in U2OS cells transfected with pCMVHA JMJD2C (H3K9me3 mark); format: cell-based; conditions: 20 hours
T2 construct: Full length; host or cells: U2OS
T2 sequence (Q9H3R0 1-1056): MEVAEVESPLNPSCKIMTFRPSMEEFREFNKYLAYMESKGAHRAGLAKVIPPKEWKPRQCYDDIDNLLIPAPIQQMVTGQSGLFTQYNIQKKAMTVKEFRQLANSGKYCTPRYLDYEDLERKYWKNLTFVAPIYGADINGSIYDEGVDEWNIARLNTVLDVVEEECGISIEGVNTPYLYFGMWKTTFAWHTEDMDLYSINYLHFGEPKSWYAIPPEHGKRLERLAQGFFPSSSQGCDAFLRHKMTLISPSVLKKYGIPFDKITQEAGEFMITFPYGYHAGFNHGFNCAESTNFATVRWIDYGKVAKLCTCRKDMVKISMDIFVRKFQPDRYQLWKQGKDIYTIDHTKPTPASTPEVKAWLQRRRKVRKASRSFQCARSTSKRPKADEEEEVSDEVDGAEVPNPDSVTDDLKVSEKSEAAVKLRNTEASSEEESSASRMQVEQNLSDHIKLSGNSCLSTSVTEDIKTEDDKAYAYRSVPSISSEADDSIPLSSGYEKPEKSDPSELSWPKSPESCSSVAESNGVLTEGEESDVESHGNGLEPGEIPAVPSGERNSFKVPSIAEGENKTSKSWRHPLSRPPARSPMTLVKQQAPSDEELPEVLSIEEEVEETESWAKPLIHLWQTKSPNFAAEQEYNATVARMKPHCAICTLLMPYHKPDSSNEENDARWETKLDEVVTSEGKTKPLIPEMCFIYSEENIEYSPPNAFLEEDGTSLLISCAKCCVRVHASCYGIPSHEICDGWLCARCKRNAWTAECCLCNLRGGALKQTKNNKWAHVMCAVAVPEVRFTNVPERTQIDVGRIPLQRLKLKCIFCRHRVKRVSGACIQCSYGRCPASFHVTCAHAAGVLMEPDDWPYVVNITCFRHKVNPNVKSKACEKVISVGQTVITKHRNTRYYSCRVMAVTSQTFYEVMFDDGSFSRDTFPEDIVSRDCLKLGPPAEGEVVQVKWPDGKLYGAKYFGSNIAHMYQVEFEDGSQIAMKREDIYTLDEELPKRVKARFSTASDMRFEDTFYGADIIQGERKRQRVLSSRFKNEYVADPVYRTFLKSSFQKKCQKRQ
Method: as §1

Row | Structure (SMILES) | IC50
18 | CN(C)CCCCNCc1cc(C(=O)O)ccn1 [2-({[4-(dimethylamino)butyl]amino}methyl)pyridine-4-carboxylic acid] | > 50 µM
19 | O=C(O)c1ccnc(CNCC[C@@H]2CCCN2Cc2ccccc2)c1 [2-[({2-[(2S)-1-benzylpyrrolidin-2-yl]ethyl}amino)methyl] pyridine-4-carboxylic acid] | > 50 µM

Other lines, results leading:

Row | IC50 | Structure (SMILES)
20 | 1 to 50 µM | O=C(O)c1ccnc(CNCc2ccco2)c1 [drawing 303, 2-{[(furan-2-ylmethyl)amino]methyl}pyridine-4-carboxylic acid]
21 | > 50 µM | CN(CCC(N)=O)C(=O)CNCc1cc(C(=O)O)ccn1 [drawing 311, 2-[({[(2-carbamoylethyl)(methyl)carbamoyl]methyl}amino)methyl]pyridine-4-carboxylic acid]
